Data on four compounds can be found in US20250170132A1, “SALTS AND POLYMORPHIC FORMS OF MENIN INHIBITORS AND PHARMACEUTICAL COMPOSITIONS THEREOF” (Syndax Pharmaceuticals, Inc., priority 2023, published 2025).

Where two headings read alike, the source gives them in different places.

Series [1] in a line: Aqueous solubility of Compound A salts. Type of series: physicochemical. The note with it: across the physiological pH range. On the procedure:
Solubility of Compound A citrate was determined in 3 different types of matrices: unbuffered water, citrate-buffered solutions from pH 3 to 6, and formulations consisting of citrate, advantame, methylparaben sodium, potassium sorbate, and sodium chloride at pH ranging from 3 to 6. Solubility in unbuffered water at ambient temperature was 38.5 mg/mL.
The target pH was reassessed when the F3 formulation was developed. Compound A citrate solubility studies were performed initially in simple buffered solutions to assess solubility trends as a function of pH. […] The target concentration of Compound A was therefore changed to 40 mg/mL as a compromise between drug substance and preservatives dissolution rate and stability.

Series [2] addresses T1, CYP3A4 (Homo sapiens, UniProt P08684).
T1 construct: from tissue
The experiment in a line: Drug interaction studies (clinical studies). Type of series: in vivo. Particulars: for AUC increase / Cmax increase: multiple doses. An excerpt:
Strong CYP3A4 Inhibitors: Compound A AUC and Cmax is increased by 2-fold following concomitant use of multiple doses of Compound A with certain azole antifungals that are strong CYP3A4 inhibitors (i.e., posaconazole, itraconazole, and voriconazole).

Series [3] deals with T2, menin (Homo sapiens, UniProt O00255).
T2 sequence (O00255 1-610): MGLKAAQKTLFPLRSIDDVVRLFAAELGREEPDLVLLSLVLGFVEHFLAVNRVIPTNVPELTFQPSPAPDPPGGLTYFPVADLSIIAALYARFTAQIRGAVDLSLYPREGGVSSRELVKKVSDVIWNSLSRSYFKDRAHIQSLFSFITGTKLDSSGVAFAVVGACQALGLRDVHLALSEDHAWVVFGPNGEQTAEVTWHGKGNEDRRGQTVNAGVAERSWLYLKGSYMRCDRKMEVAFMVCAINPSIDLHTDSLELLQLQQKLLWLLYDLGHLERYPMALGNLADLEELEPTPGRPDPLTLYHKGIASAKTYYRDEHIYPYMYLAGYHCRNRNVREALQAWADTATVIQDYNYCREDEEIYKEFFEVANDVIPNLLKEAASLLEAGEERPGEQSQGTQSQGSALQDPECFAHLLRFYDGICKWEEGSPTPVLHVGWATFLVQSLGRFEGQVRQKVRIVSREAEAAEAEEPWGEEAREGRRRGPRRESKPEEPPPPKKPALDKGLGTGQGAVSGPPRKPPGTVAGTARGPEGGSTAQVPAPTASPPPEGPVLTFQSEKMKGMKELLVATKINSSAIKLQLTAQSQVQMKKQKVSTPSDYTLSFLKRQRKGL
In words: Binding to the MLL1 binding pocket on menin. An excerpt:
(§1) Menin inhibitor (e.g., Compound A or a pharmaceutically acceptable salt thereof) disrupts the interaction between menin and the MLL1 fusion proteins which is required for leukemogenic activity, thus impairing expression of critical oncogenes, causing growth arrest and the inhibition of cellular proliferation. Small molecule inhibitors of the menin-MLL interaction have been reported.

A short description of series [4]: Pharmacokinetics in patients with relapsed or refractory acute leukemia. Type of series: in vivo, human. Particulars: for Tmax: read-out: Tmax Median; for AUC(0-t): read-out: AUC0-12 h. An excerpt: The pharmacokinetics of Compound A were characterized in patients with relapsed or refractory acute leukemia following single and multiple oral administration of Compound A with or without strong CYP3A4 inhibitors. Steady-state pharmacokinetic parameters are presented as geometric mean [geometric coefficient of variation (% CV)] unless otherwise specified.

Series [5] can be described thus: Excipient compatibility study with Compound A monocitrate monohydrate. Type of series: physicochemical. On the procedure: The list of excipients for this study was restricted to those already being used in the tablet formulation provided in Example 7. OpaDry Orange was further added.
Binary mixtures of Compound A monocitrate monohydrate and each excipient, were placed in closed 20 mL borosilicate glass vials (Tables 45-47). The vials were stored at 25° C./60% RH, 30° C./65% RH, and 40° C./75% RH over 8 weeks and later analyzed using methods for Appearance, Compound A Assay, Related Substances, XRPD, and Differential Scanning calorimetry (DSC).

The test system of series [6] is cells harboring MLLr fusions. In words: Activity in cells harboring MLLr fusions. Type of series: cell-based.
Source text: as §1

A short description of series [7]: Single crystal structure, solvate exchange under ambient conditions. Type of series: physicochemical. Particulars: after exposure to ambient conditions, analyzed at 273 K. On the procedure:
Plate-like crystals (FIG. 9) were grown by recrystallization from methanol of Compound A monocitrate monomethanolate by evaporation (prepared from methanol/water 90:10 v/v).

Series [8] in a line: Form C characterization and relative stability of the forms. It counts as physicochemical. The note with it: ambient conditions.
Source text: Moreover, HNMR studies validated a 1:1 stoichiometry between the freebase and acid.
Series [9] in a line: Slurry and solvent evaporation polymorph experiments of Compound A citrate salt (Table 9). Type of series: physicochemical. Particulars: upon drying. Here is the method: Based on the approximate solubility data of Compound A citrate salt, 18 polymorph experiments were started at RT with stirring (Table 9). Wet cakes from the slurry experiments were analyzed after 5 days of stirring. Wet cake XRPD patterns were checked and materials showing no pattern change were heated from RT to 50° C.
Procedure • 1) Slurry at RT: ˜35 mg citrate salt was slurried in different solvents in 4 mL vials using a magnetic stirrer at RT. The solids in slurry were characterized by XRPD after 3-5 days. • 2) Slurry at 50° C.: Slurries with no change in wet cake XRPD pattern when compared to starting material were heated from RT to 50° C. Samples were analyzed after 2-3 days of stirring.
Wet cake samples were isolated and kept at 25° C. for 2 h for drying. After drying, samples were analyzed by XRPD.

Series [10] is described as follows: Polymorph screening of Compound A citrate salt, form conversion (XRPD, DSC/TGA, DVS). It counts as physicochemical. Particulars: drying of wet cake (Form B); presence of water (Form C).
The test system of series [11] is NPM1c mutant AML patient-derived xenograft models. Particulars: orally active menin inhibitor; cited from earlier work.
In series [12] the test system is NPM1c cells. The note with it: cited from earlier work.
The mark [13] stands for this setting: with cobicistat (strong CYP3A4 inhibitor).
[14] abbreviates: with strong CYP3A4 inhibitor azole antifungals (posaconazole, itraconazole, voriconazole).
[15] abbreviates: 2 pediatric patients, 160 mg/m^2 without strong CYP3A4 inhibitors.
[16] abbreviates: human, plasma, oral, 163 mg twice daily with strong CYP3A4 inhibitors, steady-state, geometric mean.
Where [17] appears, read: human, plasma, oral, 276 mg twice daily without strong CYP3A4 inhibitors, steady-state, geometric mean.
The mark [18] stands for this setting: low fat meal, approximately 400-500 calories, 25% of calories from fat.
Where [19] appears, read: single dose of radiolabeled Compound A 276 mg, adult patients.

T1 sequence (P08684 whole entry): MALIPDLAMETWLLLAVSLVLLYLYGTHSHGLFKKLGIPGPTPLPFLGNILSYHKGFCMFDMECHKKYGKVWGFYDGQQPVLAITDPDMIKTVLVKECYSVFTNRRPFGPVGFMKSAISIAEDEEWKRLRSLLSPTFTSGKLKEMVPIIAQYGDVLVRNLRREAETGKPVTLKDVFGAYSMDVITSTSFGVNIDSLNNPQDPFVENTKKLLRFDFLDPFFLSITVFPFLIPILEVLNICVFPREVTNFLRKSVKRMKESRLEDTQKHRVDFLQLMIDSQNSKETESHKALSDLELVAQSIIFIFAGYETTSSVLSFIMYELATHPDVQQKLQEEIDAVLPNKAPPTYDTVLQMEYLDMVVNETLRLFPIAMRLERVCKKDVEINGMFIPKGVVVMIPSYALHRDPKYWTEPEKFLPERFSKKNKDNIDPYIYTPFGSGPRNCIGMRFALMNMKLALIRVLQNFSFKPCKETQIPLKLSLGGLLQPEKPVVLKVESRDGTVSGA

In the case of `CCN(C(=O)c1cc(F)ccc1Oc1cncnc1N1CC2(CCN(C[C@H]3CC[C@H](NS(=O)(=O)CC)CC3)CC2)C1)C(C)C` [Compound A, trans N-ethyl-2-((4-(7-((4-(ethylsulfonamido)cyclohexyl)methyl)-2,7-diazaspiro[3.5]nonan-2-yl)pyrimidin-5-yl)oxy)-5-fluoro-N-isopropylbenzamide], the solubility entry in series [1] is “high solubility”. Besides, the AUC increase worked out at 2.5 fold in series [2] (setting [13]) and 2 fold in series [2] (setting [14]). Also, the Cmax increase in series [2] (setting [13]) came to 2.5 fold; in series [2] (setting [14]), 2 fold. For the same compound, the Differences in pharmacokinetics result in [2] (with fluconazole (moderate CYP3A4 inhibitor)) and in series [2] (with isavuconazole (moderate CYP3A4 inhibitor)) was “No clinically significant differences” throughout. For the same compound, the “binding affinity to the MLL1 binding pocket on menin” value in series [3] is “high affinity”. Also, the “Apparent Clearance” value in series [4] (163 mg twice daily with strong CYP3A4 inhibitors, steady-state, geometric mean) is recorded as 7 L/h; in series [4] (276 mg twice daily without strong CYP3A4 inhibitors, steady-state, geometric mean) it was 27 L/h. The “AUC0-tau, individual patients” value in series [4] (setting [15]) is 16300 ng·h/mL. In series [4] (setting [15]), the “steady-state Cmax, individual patients” value came out at 4790 ng/mL. Further, the “Dose Proportionality” value in [4] (dosage range of 113 mg to 339 mg) is “Dose proportional increases in Cmax and AUC0-12 h”. Also, the “Effect of body weight and BSA on pharmacokinetics” value in [4] (higher exposures with lower body weight and BSA) is “significant effect”. Also, the “Metabolism: Primary Pathway” value in series [4] (human, in vivo) is “CYP3A4”. For the same compound, the fraction unbound in series [4] (human, in vivo, independent of concentration, read-out: Protein Binding (converted)) is 0.1. Moreover, the AUC in series [4] (human, plasma, oral, 95 mg/m2, pediatric patients, 95 mg/m^2 with strong CYP3A4 inhibitors, read-out: steady-state AUC0-tau, geometric mean (geometric CV %)) is 14600 ng·h/mL; in [4] (human, plasma, oral, 160 mg/m2, 2 pediatric patients, 160 mg/m^2 without strong CYP3A4 inhibitors, read-out: AUC0-tau, individual patients), 25600 ng·h/mL. The Cmax (usually the highest concentration seen after dosing) in series [4] (human, plasma, oral, 95 mg/m2, pediatric patients, 95 mg/m^2 with strong CYP3A4 inhibitors, read-out: steady-state Cmax, geometric mean (geometric CV %)) stood at 3140 ng/mL; in [4] (human, plasma, oral, 160 mg/m2, 2 pediatric patients, 160 mg/m^2 without strong CYP3A4 inhibitors, read-out: steady-state Cmax, individual patients), 4950 ng/mL; in [4] (human, plasma, oral, 163 mg, 163 mg twice daily with strong CYP3A4 inhibitors, steady-state, geometric mean, patients, read-out: Cmax) it was 3220 ng/mL; in [4] (human, plasma, oral, 276 mg, 276 mg twice daily without strong CYP3A4 inhibitors, steady-state, geometric mean, patients, read-out: Cmax), 2050 ng/mL. Moreover, the Tmax (usually the time at which the peak concentration occurs) is 2 h in series [4] (human, plasma, oral, 163 mg twice daily with strong CYP3A4 inhibitors) and 1 h in series [4] (human, plasma, oral, 276 mg twice daily without strong CYP3A4 inhibitors). Further, the half-life (usually how long it takes for the measured level to halve) was 7.5 h in series [4] (setting [16]) and 3.6 h in [4] (setting [17]). Moreover, the AUC(0-t) in [4] (setting [16]) was determined as 22600 ng·h/mL; in series [4] (setting [17]), 10200 ng·h/mL. In addition, the Vd in [4] (human, plasma, oral, steady-state, geometric mean (% CV), read-out: Apparent Volume of Distribution) amounted to 78 L. Also, the “AUC decrease with low fat meal” value in series [4] (setting [18]) worked out at 12%. In addition, the “Cmax decrease with low fat meal” value in [4] (setting [18]) turned out to be 27%. In series [4] (setting [19]), the “Excretion in Feces” value is on record as around 49%. For the same compound, the “Excretion in Feces, unchanged” value in series [4] (setting [19]) is 7%. The “Excretion in Urine” value in series [4] (setting [19]) is recorded as around 27%. Also, the “Excretion in Urine, unchanged” value in [4] (setting [19]) was determined as 7%. Moreover, the Accumulation in [4] (steady-state) is recorded as 2-fold. Moreover, the “Time to Steady-State” value in series [4] (twice daily oral dosing, patients) lay in the range of 2 to 3 days. The “Assay (%) Results” value in series [5] (8 week, 25° C./60% RH closed) came to 100.3%; in series [5] (8 week, 30° C./65% RH closed), 101.4%; in series [5] (8 week, 40° C./75% RH closed) it was 100.0%; in series [5] (Initial (t = 0), closed glass vials) it was 98.8%. Moreover, in series [6], the “activity in cells harboring MLLr fusions” value was “displays activity across a range of cells harboring MLLr fusions”.

Consider `CCN(C(=O)c1cc(F)ccc1Oc1cncnc1N1CC2(CCN(C[C@H]3CC[C@H](NS(=O)(=O)CC)CC3)CC2)C1)C(C)C.CO.O=C(O)CC(O)(CC(=O)O)C(=O)O` [Form B], for which the “Solvate exchange of single crystal” value in series [7] is on record as “transformed into a monohydrate”. For the same compound, the Form conversion result in series [8] is reported as “transitions to Form A”; in series [9], “converts to Form A upon drying”. The “stability of polymorphic form / conversion” value in [10] is “unstable form and converts to Form A upon drying”.

`CNc1nc(NC2CCN(Cc3ccc4c(cc(C#N)n4C[C@H](C)N4CCN(S(C)(=O)=O)CC4)c3C)CC2)c2cc(CC(F)(F)F)sc2n1` [KO-539]: the anti-leukemic activity entry in series [11] is reported as “robust anti-leukemic activity”.

Consider `Cc1c(CN2CCC(Nc3ncnc4sc(CC(F)(F)F)cc34)CC2)ccc2c1cc(C#N)n2Cc1cn[nH]c1` [MI-503], for which the “effect on HOXA/MEIS1 transcription program in NPM1c cells” value in series [12] is “suppress the HOXA/MEIS1 transcription program in NPM1c cells, leading to growth arrest, terminal differentiation and cell death”.
